The values below come from ChEMBL document CHEMBL2390853, “The products of the reaction between 6-amine-1,3-dimethyl uracil and bis-chalcones induce cytotoxicity with massive vacuolation in HeLa cervical cancer cell line” (Eur J Med Chem, 2013).

Molecules are shown by their SMILES. Active and inactive are the calls of the source. The calls are words filed in the database; no cut-off is given here.

The subject of series [1] is SW-620. In words: Cytotoxicity against human SW620 cells assessed as growth inhibition after 48 hrs by MTT assay. In kind it is functional, cell-based. The conditions noted are these: SW-620, 48 h.
The subject of series [2] is SW480. In words: Cytotoxicity against human SW480 cells assessed as growth inhibition after 48 hrs by MTT assay. The conditions noted are these: SW480, 48 h. In kind it is functional, cell-based.
A short description of series [3]: Cytotoxicity against human CALO cells assessed as growth inhibition after 48 hrs by MTT assay. In kind it is functional, cell-based.
For series [4], the system named is K562. In words: Cytotoxicity against human K562 cells assessed as growth inhibition after 48 hrs by MTT assay. In kind it is functional, cell-based. To be noted: K562, 48 h.
A short description of series [5]: Cytotoxicity against human HEK293Q cells assessed as growth inhibition after 48 hrs by MTT assay. In kind it is cell-based.
The nature of series [6]: Cytotoxicity against human C33 cells assessed as growth inhibition after 48 hrs by MTT assay. In kind it is functional, cell-based. To be noted: C33, 48 h.
Series [7] concerns HeLa. In words: Cytotoxicity against human HeLa cells assessed as growth inhibition after 48 hrs by MTT assay. In kind it is functional, cell-based.
The subject of series [8] is MCF7. In words: Cytotoxicity against human MCF7 cells assessed as growth inhibition after 48 hrs by MTT assay. To be noted: MCF7, 48 h. In kind it is functional, cell-based.
The subject of series [9] is HeLa. Nature of the series: Induction of autophagy in human HeLa cells assessed as increase in conversion of LC3B-1 to LC3B-2 at 10 uM after 3 hrs by Western blot analysis. In kind it is functional, cell-based.
Series [10] relates to HeLa. Nature of the series: Induction of cytoplasmic vacuolation in human HeLa cells. In kind it is functional, cell-based.
In series [11] the test system is SW-620. Nature of the series: Cytotoxicity against human SW620 cells assessed as growth inhibition at 0.25 to 100 uM after 48 hrs by MTT assay. In kind it is functional, cell-based.
In series [12] the test system is CALO. In words: Cytotoxicity against human CALO cells assessed as growth inhibition at 0.25 to 100 uM after 48 hrs by MTT assay. In kind it is functional, cell-based.
A short description of series [13]: Cytotoxicity against human HEK293Q cells assessed as growth inhibition at 0.25 to 100 uM after 48 hrs by MTT assay. In kind it is cell-based.
In series [14] the test system is SW480. In words: Cytotoxicity against human SW480 cells assessed as growth inhibition at 0.25 to 100 uM after 48 hrs by MTT assay. In kind it is functional, cell-based.
Series [15] deals with MCF7. In words: Cytotoxicity against human MCF7 cells assessed as growth inhibition at 0.25 to 100 uM after 48 hrs by MTT assay. In kind it is functional, cell-based.
Series [16] deals with C33. Nature of the series: Cytotoxicity against human C33 cells assessed as growth inhibition at 0.25 to 100 uM after 48 hrs by MTT assay. In kind it is functional, cell-based.
Series [17] deals with K562. Nature of the series: Cytotoxicity against human K562 cells assessed as growth inhibition at 0.25 to 100 uM after 48 hrs by MTT assay. In kind it is functional, cell-based.
Series [18] relates to HeLa. Nature of the series: Cytotoxicity against human HeLa cells assessed as growth inhibition at 0.25 to 100 uM after 48 hrs by MTT assay. In kind it is functional, cell-based.
The subject of series [19] is HeLa. In words: Induction of apoptosis in human HeLa cells assessed as change in Bax expression at 2.5 to 15 uM after 24 hrs by Western blot analysis. In kind it is functional, cell-based.
For series [20], the system named is HeLa. Nature of the series: Cell cycle arrest in human HeLa cells assessed as effect on G2/M phase at 13 uM after 12 to 72 hrs by propidium iodide staining-based FACS flow cytometric analysis. In kind it is functional.
Series [21] relates to HeLa. Nature of the series: Induction of apoptosis in human HeLa cells assessed as DNA fragmentation at 13 uM after 48 hrs by TUNEL assay. In kind it is functional, cell-based.
Series [22] deals with HeLa. Nature of the series: Induction of necrosis in human HeLa cells assessed as inhibition of cell viability at 13 uM after 24 to 48 hrs by tryphan blue exclusion assay. In kind it is functional, cell-based.
Series [23] has as its system HeLa. Nature of the series: Induction of apoptosis in human HeLa cells assessed as change in Bcl-2 expression at 2.5 to 15 uM after 24 hrs by Western blot analysis. In kind it is functional, cell-based.
In series [24] the test system is HeLa. In words: Induction of necrosis in human HeLa cells at 13 uM after 24 to 48 hrs by LDH release assay. In kind it is functional, cell-based.
For series [25], the system named is HeLa. In words: Induction of autophagy in human HeLa cells assessed as increase in conversion of LC3B-1 to LC3B-2 at 13 uM after 24 hrs by Western blot analysis. In kind it is functional, cell-based.
The test system of series [26] is HeLa. In words: Cytotoxicity against human HeLa cells assessed as cell viability at 13 uM after 24 hrs by MTT assay in presence of spautin-1. In kind it is functional, cell-based.
For series [27], the system named is HeLa. Nature of the series: Induction of autophagy in human HeLa cells assessed as increase in conversion of LC3B-1 to LC3B-2 at 13 uM after 24 hrs by Western blot analysis in presence of spautin-1. In kind it is functional, cell-based.
In series [28] the test system is HeLa. Nature of the series: Induction of apoptosis in human HeLa cells assessed as change in procaspase-3 expression at 2.5 to 15 uM after 24 hrs by Western blot analysis. In kind it is functional, cell-based.
Series [29] relates to HeLa. Nature of the series: Cell cycle arrest in human HeLa cells assessed as increase in accumulation at G1 phase at 13 uM after 48 to 72 hrs by propidium iodide staining-based FACS flow cytometric analysis. In kind it is functional.
Series [30] relates to HeLa. In words: Cytotoxicity against human HeLa cells assessed as cell viability at 13 uM after 48 hrs by MTT assay in presence of gallic acid. In kind it is functional, cell-based.
The test system of series [31] is HeLa. In words: Induction of cytoplasmic vacuolation in human HeLa cells at 13 uM after 24 hrs by hematoxylin staining-based light microscopic analysis. In kind it is functional, cell-based.
Series [32] has as its system HeLa. In words: Induction of cytoplasmic vacuolation in human HeLa cells at 13 uM after 24 hrs by neutral red staining-based light microscopic analysis. In kind it is functional, cell-based.
Series [33] concerns HeLa. In words: Induction of apoptosis in human HeLa cells assessed as change in p53 expression at 2.5 to 15 uM after 24 hrs by Western blot analysis. In kind it is functional, cell-based.
Series [34] relates to HeLa. In words: Induction of cytoplasmic vacuolation in human HeLa cells assessed as change in cell morphology at 13 uM after 24 hrs by hematoxylin staining-based light microscopic analysis in presence of cycloheximide. In kind it is functional.
The test system of series [35] is HeLa. Nature of the series: Induction of autophagy in human HeLa cells assessed as large vacuole formation at 13 uM after 24 hrs by inverted microscopic analysis in presence of spautin-1. In kind it is functional, cell-based.
Series [36] relates to HeLa. In words: Cell cycle arrest in human HeLa cells assessed as accumulation at sub G1 phase at 13 uM after 72 hrs by propidium iodide staining-based FACS flow cytometric analysis. In kind it is functional.
In series [37] the test system is HeLa. In words: Induction of necrosis in human HeLa cells assessed as inhibition of cell viability at 13 uM after 24 to 48 hrs by MTT assay. In kind it is functional, cell-based.
Series [38] concerns HeLa. In words: Cell cycle arrest in human HeLa cells assessed as decrease in reduction in cells at S phase at 13 uM after 72 hrs by propidium iodide staining-based FACS flow cytometric analysis. In kind it is functional.
Series [39] concerns HeLa. In words: Induction of apoptosis in human HeLa cells assessed as change in procaspase-3 expression at 0.25 uM after 24 hrs by Western blot analysis. In kind it is functional, cell-based.
The test system of series [40] is HeLa. In words: Induction of apoptosis in human HeLa cells assessed as change in Bax expression at 0.25 uM after 24 hrs by Western blot analysis. In kind it is functional, cell-based.
Series [41] concerns HeLa. Nature of the series: Cell cycle arrest in human HeLa cells assessed as accumulation at polyploidy region at 0.25 uM after 48 to 72 hrs by propidium iodide staining-based FACS flow cytometric analysis. In kind it is functional.
Series [42] has as its system HeLa. Nature of the series: Cell cycle arrest in human HeLa cells assessed as accumulation at sub G1 phase at 0.25 uM after 48 to 72 hrs by propidium iodide staining-based FACS flow cytometric analysis. In kind it is functional.
Series [43] has as its system HeLa. In words: Cell cycle arrest in human HeLa cells assessed as accumulation at G2/M phase at 0.25 uM after 12 hrs by propidium iodide staining-based FACS flow cytometric analysis. In kind it is functional.
Series [44] deals with HeLa. In words: Induction of apoptosis in human HeLa cells. In kind it is functional, cell-based.
The subject of series [45] is HeLa. Nature of the series: Induction of apoptosis in human HeLa cells assessed as change in p53 expression at 0.25 uM after 24 hrs by Western blot analysis. In kind it is functional, cell-based.
The subject of series [46] is HeLa. Nature of the series: Induction of apoptosis in human HeLa cells assessed as DNA fragmentation at 0.25 uM after 48 hrs by TUNEL assay. In kind it is functional, cell-based.
Series [47] deals with HeLa. Nature of the series: Cytotoxicity against human HeLa cells assessed as cell viability at 50 uM after 3 hrs. In kind it is cell-based.

For the compound `Cn1cccc1/C=C1\COCc2c1nc1c(c2-c2cccn2C)c(=O)n(C)c(=O)n1C`, the half-inhibitory concentration (IC50) in [1] was found to be 14 µM; in [2] it was 28.2 µM; in series [3], 43.7 µM; in series [4] it was 37.6 µM; in [5] it was 67.7 µM; in series [6], 21.6 µM. In addition, the IC50 in [7] was found to be 19.6 µM; in [8], 8.37 µM.
For the compound `Fc1ccc(CNc2ncnc3ccc(F)cc23)cc1`, in series [9], the result was inactive.
Take `Cn1c(=O)c2c(-c3ccsc3)c3c(nc2n(C)c1=O)/C(=C/c1ccsc1)CCC3`: the 50% inhibitory concentration (IC50) in [1], in series [2], in series [3], in series [4], in series [5] and in series [6] was more than 100 µM each time. In addition, the half-inhibitory concentration (IC50) in series [7] and in [8] was more than 100 µM in each case. Also, the result in [10] was inactive.
As for `Cn1c(=O)c2c(-c3ccsc3)c3c(nc2n(C)c1=O)/C(=C/c1ccsc1)COC3`, the “growth inhibition (GI)” value in [11], in [12], in series [14], in series [15], in [16] and in series [17] was “inactive” each time. For the same compound, the “growth inhibition (GI)” value in series [18] is “inactive”. The Activity result in [13] is reported as “Non-toxic”. The outcome in series [10] was inactive.
Consider `Cn1cccc1/C=C1\CCCc2c1nc1c(c2-c2cccn2C)c(=O)n(C)c(=O)n1C`, for which the outcome in series [19], in series [20], in series [21], in [23], in series [27] and in [28] was inactive. The result in series [33], in series [35] and in series [36] was inactive. Moreover, the IC50 in series [1] stood at 8.54 µM; in series [2], 4.4 µM; in [3], 13.2 µM; in series [4], 10.4 µM; in [5], 60.1 µM; in series [6], 22.2 µM. Moreover, the IC50 in [7] is 13.1 µM; in series [8], 9.33 µM. Moreover, the result in series [22], in series [24], in [25], in series [26], in [29] and in [30] was Active. The outcome in series [31], in [32], in series [34], in series [37] and in series [38] was Active.
As for `CC(=O)O[C@H]1C(=O)[C@@]2(C)[C@H]([C@H](OC(=O)c3ccccc3)[C@]3(O)C[C@H](OC(=O)[C@H](O)[C@@H](NC(=O)c4ccccc4)c4ccccc4)C(C)=C1C3(C)C)[C@]1(OC(C)=O)CO[C@@H]1C[C@@H]2O`, the outcome in series [39], in [40] and in series [45] was inactive. Besides, the result in [41], in [42], in series [43], in series [44] and in series [46] was Active.
With `C[C@@H]1C[C@@H]([C@H](O)CC2CC(=O)NC(=O)C2)C(=O)[C@@H](C)C1` [CYCLOHEXIMIDE], in [47], the Activity entry was “Non-toxic”.
